Experiments:
human GPR40 receptor [1] = target: T1, human GPR40 receptor (Homo sapiens, UniProt O14842); experiment: Cytosolic calcium measurement using the FLIPR system; assay type: cell-based; conditions: FLIPR cytosolic Ca2+ peak height; 1321N1 cells stably expressing human GPR40; read-out: EC50 values on GPR40 determined as described in (A)
Protocol: (A) Cytosolic calcium measurement using the FLIPR system—1321N1 cells stably expressing human GPR40 receptor (Euroscreen, Belgium) were seeded 24 h before the assay in black clear-bottom collagen-coated 384-well plates in culture medium containing 10% FCS, 1% Na-Pyruvate and 400 μg/ml G418. On the assay day, wells were washed twice with 100 μL Krebs Ringer Buffer (KRB) containing 15 mM sodium hydrogencarbonate and 30 mM Hepes leaving 20 μl rest volume per well. Prior to stimulation the cells were loaded with the Ca^2+-sensitive fluorescent dye from the Calcium4 Assay Kit™ according to the Manufacturer's description (MDS Analytical technologies, Ismaning, Germany) for 80 min at room temperature in the dark, in the presence of 4 mM probenicid. Changes in cytosolic Ca^2+ concentration upon compound addition were monitored using a FLIPR Tetra device (Fluorescence Imaging Plate Reader; MDS Analytical technologies). The peak height of the obtained fluorescence signal was then used to calculate the EC50 values using GraphPad Prism 5 (Graphpad Software Inc, USA) using a sigmoidal curve fitting procedure allowing for a variable hill slope.

human GPR40 receptor [2] = target: T1, human GPR40 receptor; experiment: IP1 accumulation measurements using the IPOne assay system; assay type: cell-based; conditions: IP1 accumulation (IPOne HTRF), 1 hour stimulation; 1321N1 cells stably expressing human GPR40; read-out: EC50 values on GPR40 determined as described in (B)
In short: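 1321N1 cells stably expressing human GPR40 were stimulated with compounds for 1 h at 37° in pH 7.4 HEPES buffer with 50 mM final LiCl. IP1 accumulation was then read by HTRF (IP1-d2/anti-IP1 Tb cryptate) after 1 h lysis at room temperature.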

T1 sequence (O14842 whole entry): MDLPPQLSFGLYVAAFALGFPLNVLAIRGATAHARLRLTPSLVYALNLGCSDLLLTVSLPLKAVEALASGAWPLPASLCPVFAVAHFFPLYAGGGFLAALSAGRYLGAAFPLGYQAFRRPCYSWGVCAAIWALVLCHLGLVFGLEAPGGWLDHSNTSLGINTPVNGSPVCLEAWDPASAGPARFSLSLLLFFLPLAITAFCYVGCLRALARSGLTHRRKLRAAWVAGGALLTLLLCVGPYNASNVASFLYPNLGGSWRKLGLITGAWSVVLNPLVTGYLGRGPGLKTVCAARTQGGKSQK

COC1(c2cccc3c2CC[C@H]3Oc2ccc3c(c2)OC[C@H]3CC(=O)O)CCC1 [Example 18, {(S)-6-[(R)-4-(1-Methoxy-cyclobutyl)-indan-1-yloxy]-2,3-dihydro-benzofuran-3-yl}-acetic acid]
EC50 (human GPR40 receptor [1]): 21 nM
EC50 (human GPR40 receptor [2]): 162 nM

From patent publication US20120302566A1, “INDANYLOXYDIHYDROBENZOFURANYLACETIC ACIDS” (BOEHRINGER INGELHEIM INTERNATIONAL GMBH, priority 2010, published 2012)
